Laboratory results reported in ChEMBL document CHEMBL1141115, “Synthesis of leukotriene B4 antagonists labeled with In-111 or Tc-99m to image infectious and inflammatory foci” (J Med Chem, 2005).

Columns and labels:
[1] = biological target: T1, Leukotriene B4 receptor 1 (Homo sapiens, UniProt Q15722); assay: Inhibitory concentration against human leukotriene B4 receptor using competing agent [3H]-LTB4 as radioligand in pH 7.2 buffer, for 1 hr at 37 degree C
[2] = biological target: T1, Leukotriene B4 receptor 1; assay: Inhibitory concentration against human leukotriene B4 receptor using competing agent [3H]-LTB4 as radioligand in pH 7.2 buffer upon incubation for 1 hr at 37 degree C; (n=4)
[3] = biological target: T1, Leukotriene B4 receptor 1; assay: Inhibitory concentration against human leukotriene B4 receptor using competing agent [111In]-(17)] as radioligand in pH 7.2 buffer, for 1 hr at 37 degree C; (n=2)
[4] = biological target: T1, Leukotriene B4 receptor 1; assay: Inhibitory concentration against human leukotriene B4 receptor using competing agent [3H]-LTB4 as radioligand in pH 7.2 buffer, for 1 h at 37 degree C; (n=2)

T1 sequence (Q15722 whole entry): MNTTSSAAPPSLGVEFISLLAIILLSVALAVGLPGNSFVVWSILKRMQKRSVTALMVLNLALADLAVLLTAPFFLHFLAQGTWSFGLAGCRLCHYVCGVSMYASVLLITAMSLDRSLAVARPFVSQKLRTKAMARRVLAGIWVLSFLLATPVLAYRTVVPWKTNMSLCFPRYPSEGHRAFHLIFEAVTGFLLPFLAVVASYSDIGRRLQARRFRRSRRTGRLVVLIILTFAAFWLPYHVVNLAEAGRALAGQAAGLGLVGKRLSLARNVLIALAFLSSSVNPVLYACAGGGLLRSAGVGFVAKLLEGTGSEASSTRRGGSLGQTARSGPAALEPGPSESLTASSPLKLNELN

| SMILES | IC50 [3] [nM] | IC50 [4] [nM] | further results |
| --- | --- | --- | --- |
| CC(C)(CCCCOc1cc(-c2ccccc2)cc(-c2ccccc2)n1)c1nnn[nH]1 |  |  | IC50 [1]: 20 nM |
| CC(C)(CCCCOc1cc(-c2ccccc2)cc(-c2ccccc2)n1)c1nnnn1CCCCC(=O)NCCCOCCOCCOCCCNC(=O)c1ccc(N/N=C/c2ccccc2S(=O)(=O)O)nc1 | 44 |  | IC50 [2]: 45 nM |
| CC(C)(CCCCOc1cc(-c2ccccc2)cc(-c2ccccc2)n1)c1nnnn1CCCCC(=O)NCCCOCCOCCOCCCNC(=O)[C@H](CS(=O)(=O)O)NC(=O)[C@H](CS(=O)(=O)O)NC(=O)[C@H](CS(=O)(=O)O)NC(=O)[C@H](CS(=O)(=O)O)NC(=O)c1ccc(N/N=C/c2ccccc2)nc1 | 16 |  |  |
| CC(C)(CCCCOc1cc(-c2ccccc2)cc(-c2ccccc2)n1)c1nnnn1CCCCC(=O)NCCCOCCOCCOCCCNC(=O)[C@H](CS(=O)(=O)O)NC(=O)[C@H](CS(=O)(=O)O)NC(=O)[C@H](CS(=O)(=O)O)NC(=O)[C@H](CS(=O)(=O)O)NC(=O)CC[C@H](NC(=O)c1ccc(N/N=C/c2ccccc2)nc1)C(=O)N[C@@H](CS(=O)(=O)O)C(=O)N[C@@H](CS(=O)(=O)O)C(=O)N[C@@H](CS(=O)(=O)O)C(=O)N[C@@H](CS(=O)(=O)O)C(=O)NCCCOCCOCCOCCCNC(=O)CCCCn1nnnc1C(C)(C)CCCCOc1cc(-c2ccccc2)cc(-c2ccccc2)n1 | 230 |  |  |

More lines, main results first:

| IC50 [3] [nM] | IC50 [4] [nM] | SMILES | further results |
| --- | --- | --- | --- |
|  | 8 | CC(C)(CCCCOc1cc(-c2ccccc2)cc(-c2ccccc2)n1)c1nnnn1CCCCC(=O)NCCCOCCOCCOCCCNC(=O)[C@H](CS(=O)(=O)O)NC(=O)[C@H](CS(=O)(=O)O)NC(=O)[C@H](CS(=O)(=O)O)NC(=O)[C@H](CS(=O)(=O)O)NC(=O)CC[C@H](N)C(=O)N[C@@H](CS(=O)(=O)O)C(=O)N[C@@H](CS(=O)(=O)O)C(=O)N[C@@H](CS(=O)(=O)O)C(=O)N[C@@H](CS(=O)(=O)O)C(=O)NCCCOCCOCCOCCCNC(=O)CCCCn1nnnc1C(C)(C)CCCCOc1cc(-c2ccccc2)cc(-c2ccccc2)n1 |  |
| 30 | 54 | CC(C)(CCCCOc1cc(-c2ccccc2)cc(-c2ccccc2)n1)c1nnnn1CCCCC(=O)NCCCOCCOCCOCCCNC(=O)[C@H](CS(=O)(=O)O)NC(=O)[C@H](CS(=O)(=O)O)NC(=O)[C@H](CS(=O)(=O)O)NC(=O)[C@H](CS(=O)(=O)O)NC(=O)CC[C@H](NC(=O)CN(CCN(CCN(CC(=O)O)CC(=O)O)CC(=O)O)CC(=O)O)C(=O)N[C@@H](CS(=O)(=O)O)C(=O)N[C@@H](CS(=O)(=O)O)C(=O)N[C@@H](CS(=O)(=O)O)C(=O)N[C@@H](CS(=O)(=O)O)C(=O)NCCCOCCOCCOCCCNC(=O)CCCCn1nnnc1C(C)(C)CCCCOc1cc(-c2ccccc2)cc(-c2ccccc2)n1 |  |
